According to ChEMBL document CHEMBL1133297, “Synthesis and erythropoietin receptor binding affinities of N,N-disubstituted amino acids” (Bioorg Med Chem Lett, 2000):
Where a SMILES comes first, the peptide text is derived from it.

Key:
[1] = target: T1, Erythropoietin receptor (Homo sapiens) (UniProt P19235); test: Compound was evaluated for inhibition of [125I]EPO binding to Erythropoietin receptor (EBP) at a concentration of 50 uM
T1 sequence (whole entry): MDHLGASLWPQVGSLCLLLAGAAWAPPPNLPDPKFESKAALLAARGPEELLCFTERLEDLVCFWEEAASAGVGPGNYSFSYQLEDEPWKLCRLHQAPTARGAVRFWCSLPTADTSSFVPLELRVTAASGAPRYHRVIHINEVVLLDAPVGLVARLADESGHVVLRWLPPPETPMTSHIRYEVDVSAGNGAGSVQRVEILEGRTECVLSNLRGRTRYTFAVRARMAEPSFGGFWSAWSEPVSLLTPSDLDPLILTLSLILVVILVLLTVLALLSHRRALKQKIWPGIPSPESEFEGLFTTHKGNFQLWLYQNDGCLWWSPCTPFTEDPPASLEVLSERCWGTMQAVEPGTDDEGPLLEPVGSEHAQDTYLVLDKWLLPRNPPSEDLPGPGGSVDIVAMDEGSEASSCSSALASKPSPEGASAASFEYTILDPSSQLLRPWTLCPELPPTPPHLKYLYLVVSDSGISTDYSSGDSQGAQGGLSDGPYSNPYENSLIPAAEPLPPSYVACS

[2] = target: T2, Erythropoietin receptor (Homo sapiens, UniProt P19235); test: Compound was evaluated for inhibition of [125I]-EPO binding to Erythropoietin receptor (EBP)
T2 sequence (P19235 whole entry): T1 sequence (whole entry)

[3] = target: T1, Erythropoietin receptor (Homo sapiens); test: Compound was evaluated for inhibition of [125I]EPO binding to EBP (erythropoietin receptor) at a concentration of 50 uM
[4] = target: T2, Erythropoietin receptor; test: Compound was evaluated for inhibition of [125I]EPO binding to Erythropoietin receptor (EBP)

Row | inhibition [1] [%] | IC50 [2] [µM] | inhibition [3] [%] | IC50 [4] [µM] | Compound
1 | 78 | 42 | – | – | O=C(O)CC[C@@H](C(=O)O)N(C/C=C/c1cccc(Oc2ccccc2)c1)C/C=C/c1cccc(Oc2ccccc2)c1
2 | 81 | – | – | – | O=C(O)C[C@@H](C(=O)O)N(C/C=C/c1cccc(Oc2ccccc2)c1)C/C=C/c1cccc(Oc2ccccc2)c1
3 | 78 | 30 | – | – | CC(C)(C)c1ccc(Oc2cccc(/C=C/CN(C/C=C/c3cccc(Oc4ccc(C(C)(C)C)cc4)c3)[C@@H](CCC(=O)O)C(=O)O)c2)cc1
4 | 0 | – | – | – | COC(=O)[C@H](CCC(=O)OC(C)(C)C)N(C/C=C/c1cccc(Oc2ccccc2)c1)C/C=C/c1cccc(Oc2ccccc2)c1
5 | 45 | – | – | – | O=C(O)CN(C/C=C/c1cccc(Oc2ccccc2)c1)C/C=C/c1cccc(Oc2ccccc2)c1
6 | 72 | 40 | – | – | C[C@@H](C(=O)O)N(C/C=C/c1cccc(Oc2ccccc2)c1)C/C=C/c1cccc(Oc2ccccc2)c1
7 | 73 | 35 | – | – | COC(=O)[C@H](CCCCNC(N)=O)N(C/C=C/c1cccc(Oc2ccccc2)c1)C/C=C/c1cccc(Oc2ccccc2)c1
8 | 18 | – | – | – | COC(=O)[C@H](CCCCN)N(C/C=C/c1cccc(Oc2ccc(C(C)(C)C)cc2)c1)C/C=C/c1cccc(Oc2ccc(C(C)(C)C)cc2)c1
9 | 70 | 35 | – | – | O=C(O)CC[C@@H](C(=O)O)N(C/C=C/c1cccc(Oc2cccc(C(F)(F)F)c2)c1)C/C=C/c1cccc(Oc2cccc(C(F)(F)F)c2)c1
10 | 0 | – | – | – | COC(=O)[C@H](CCCCNC(=O)OC(C)(C)C)N(C/C=C/c1cccc(Oc2ccc(C(C)(C)C)cc2)c1)C/C=C/c1cccc(Oc2ccc(C(C)(C)C)cc2)c1
11 | 20 | – | – | – | CC(C)(C)OC(=O)C[C@@H](C(=O)OC(C)(C)C)N(C/C=C/c1cccc(Oc2ccccc2)c1)C/C=C/c1cccc(Oc2ccccc2)c1
12 | 57 | 145 | – | – | COC(=O)[C@H](CO)N(C/C=C/c1cccc(Oc2ccccc2)c1)C/C=C/c1cccc(Oc2ccccc2)c1
13 | 0 | – | – | – | COC(=O)[C@H](COC(C)(C)C)N(C/C=C/c1cccc(Oc2ccccc2)c1)C/C=C/c1cccc(Oc2ccccc2)c1
14 | 0 | – | – | – | COC(=O)[C@H](CCCCNC(=O)OC(C)(C)C)N(C/C=C/c1cccc(Oc2ccccc2)c1)C/C=C/c1cccc(Oc2ccccc2)c1
15 | 77 | 35 | – | – | COC(=O)[C@H](CCCCNS(C)(=O)=O)N(C/C=C/c1cccc(Oc2ccccc2)c1)C/C=C/c1cccc(Oc2ccccc2)c1

Continued, compound first:

Row | Compound | inhibition [1] [%] | IC50 [2] [µM] | inhibition [3] [%] | IC50 [4] [µM]
16 | COC(=O)[C@H](CCCCN)N(Cc1ccc(OCc2ccccc2)cc1)Cc1ccc(OCc2ccccc2)cc1 | 54 | – | – | –
17 | O=C(O)C[C@H](C(=O)NCCCOCCCCOCCCNC(=O)[C@H](CC(=O)O)N(Cc1ccc(OCc2ccccc2)cc1)Cc1ccc(OCc2ccccc2)cc1)N(Cc1ccc(OCc2ccccc2)cc1)Cc1ccc(OCc2ccccc2)cc1 | 75 | 18 | – | –
18 | COC(=O)[C@H](CCCCN)N(Cc1cccc(OCc2ccccc2)c1)Cc1cccc(OCc2ccccc2)c1 | 59 | 10 | – | –
19 | O=C(O)CCC(=O)NCCCC[C@H](C(=O)NCCOCCOCCNC(=O)[C@H](CCCCNC(=O)CCC(=O)O)N(Cc1ccc(OCc2ccccc2)cc1)Cc1ccc(OCc2ccccc2)cc1)N(Cc1ccc(OCc2ccccc2)cc1)Cc1ccc(OCc2ccccc2)cc1 | 93 | 1.5 | – | –
20 | O=C(O)C[C@@H](C(=O)NCCCOCCOCCOCCCNC(=O)[C@H](CC(=O)O)N(Cc1ccc(OCc2ccccc2)cc1)Cc1ccc(OCc2ccccc2)cc1)N(Cc1ccc(OCc2ccccc2)cc1)Cc1ccc(OCc2ccccc2)cc1 | 66 | 28 | – | –
21 | O=C(O)CCCC(=O)NCCCC[C@H](C(=O)NCCCOCCCCOCCCNC(=O)[C@H](CCCCNC(=O)CCCC(=O)O)N(Cc1ccc(OCc2ccccc2)cc1)Cc1ccc(OCc2ccccc2)cc1)N(Cc1ccc(OCc2ccccc2)cc1)Cc1ccc(OCc2ccccc2)cc1 | 82 | 4 | – | –
22 | O=C(O)CC[C@H](C(=O)NCCOCCOCCNC(=O)[C@H](CCC(=O)O)N(Cc1ccc(OCc2ccccc2)cc1)Cc1ccc(OCc2ccccc2)cc1)N(Cc1ccc(OCc2ccccc2)cc1)Cc1ccc(OCc2ccccc2)cc1 | 79 | – | – | –
23 | COC(=O)[C@H](CCCCNC(=O)OC(C)(C)C)N(Cc1cccc(OCc2ccccc2)c1)Cc1cccc(OCc2ccccc2)c1 | 7 | – | – | –
24 | COC(=O)[C@H](CCC(=O)O)N(C/C=C/c1cccc(Oc2ccc(Cl)c(Cl)c2)c1)C/C=C/c1cccc(Oc2ccc(Cl)c(Cl)c2)c1 | 32 | – | – | –
25 | COC(=O)[C@H](CCCCNC(=O)OC(C)(C)C)NC/C=C/c1cccc(Oc2ccccc2)c1 | 20 | – | – | –
26 | COC(=O)[C@H](CCCCN)N(Cc1ccc(OCc2ccccc2)cc1)Cc1cccc([N+](=O)[O-])c1 | 37 | – | – | –
27 | O=C(O)CC[C@H](NC/C=C/c1cccc(Oc2ccccc2)c1)C(=O)O | 0 | – | – | –
28 | O=C(O)CCCC(=O)NCCCC[C@@H](C(=O)NCCCOCCOCCOCCCNC(=O)[C@H](CCCCNC(=O)CCCC(=O)O)N(Cc1ccc(OCc2ccccc2)cc1)Cc1ccc(OCc2ccccc2)cc1)N(Cc1ccc(OCc2ccccc2)cc1)Cc1ccc(OCc2ccccc2)cc1 | 78 | 10 | – | –
29 | O=C(O)CCC(=O)NCCCC[C@H](C(=O)NCCCCCCCCCCCCNC(=O)[C@H](CCCCNC(=O)CCC(=O)O)N(Cc1ccc(OCc2ccccc2)cc1)Cc1ccc(OCc2ccccc2)cc1)N(Cc1ccc(OCc2ccccc2)cc1)Cc1ccc(OCc2ccccc2)cc1 | 56 | 100 | – | –
30 | COC(=O)[C@H](CCCCNC(=O)OC(C)(C)C)N(Cc1ccc(OCc2ccccc2)cc1)Cc1cccc([N+](=O)[O-])c1 | 24 | – | – | –
31 | COC(=O)[C@H](COC(C)(C)C)NC/C=C/c1cccc(Oc2ccccc2)c1 | 8 | – | – | –
32 | COC(=O)[C@H](CO)NC/C=C/c1cccc(Oc2ccccc2)c1 | 28 | – | – | –
33 | O=C(O)CCC(=O)NCCCC[C@H](C(=O)NCCCOCCCCOCCCNC(=O)[C@H](CCCCNC(=O)CCC(=O)O)N(Cc1ccc(OCc2ccccc2)cc1)Cc1ccc(OCc2ccccc2)cc1)N(Cc1ccc(OCc2ccccc2)cc1)Cc1ccc(OCc2ccccc2)cc1 | 65 | 6 | – | –
34 | O=C(O)[C@H](CO)NC/C=C/c1cccc(Oc2ccccc2)c1 | 23 | – | – | –
35 | COC(=O)[C@H](CCCCNC(=O)OC(C)(C)C)N(Cc1ccc(OCc2ccccc2)cc1)Cc1ccc(OCc2ccccc2)cc1 | 5 | – | – | –
36 | O=C(O)CCCC(=O)NCCCC[C@H](C(=O)NCCCCCCCCCCCCNC(=O)[C@H](CCCCNC(=O)CCCC(=O)O)N(Cc1ccc(OCc2ccccc2)cc1)Cc1ccc(OCc2ccccc2)cc1)N(Cc1ccc(OCc2ccccc2)cc1)Cc1ccc(OCc2ccccc2)cc1 | 55 | 85 | – | –
37 | COC(=O)[C@H](CCC(=O)OC(C)(C)C)NC/C=C/c1cccc(Oc2ccccc2)c1 | – | – | 6 | –
38 | COC(=O)[C@H](CCC(=O)O)NC/C=C/c1cccc(Oc2ccccc2)c1 | 6 | – | – | –
39 | CC(C)(C)OC(=O)CC[C@H](NC/C=C/c1cccc(Oc2ccccc2)c1)C(=O)O | 0 | – | – | –
40 | O=C(O)CCCC(=O)NCCCC[C@H](C(=O)NCCOCCOCCNC(=O)[C@H](CCCCNC(=O)CCCC(=O)O)N(Cc1ccc(OCc2ccccc2)cc1)Cc1ccc(OCc2ccccc2)cc1)N(Cc1ccc(OCc2ccccc2)cc1)Cc1ccc(OCc2ccccc2)cc1 | 88 | 1.5 | – | –
41 | O=C(O)CCC(=O)NCCCC[C@@H](C(=O)NCCCOCCOCCOCCCNC(=O)[C@H](CCCCNC(=O)CCC(=O)O)N(Cc1ccc(OCc2ccccc2)cc1)Cc1ccc(OCc2ccccc2)cc1)N(Cc1ccc(OCc2ccccc2)cc1)Cc1ccc(OCc2ccccc2)cc1 | 77 | 7 | – | –
42 | CC(C)C[C@@H]1NC(=O)[C@H]([C@@H](C)O)NC(=O)[C@H](Cc2c[nH]c3ccccc23)NC(=O)[C@H](C(C)C)NC(=O)[C@@H](NC(=O)[C@H](CCCCN)NC(=O)[C@@H]2CCCN2C(=O)[C@H](CCC(N)=O)NC(=O)CNC(=O)CN)CSSC[C@@H](C(=O)N[C@@H](Cc2ccc(O)cc2)C(=O)N[C@@H](CO)C(=O)N[C@H](C(=O)NCC(=O)NCC(N)=O)[C@@H](C)O)NC(=O)[C@H](Cc2c[nH]cn2)NC(=O)[C@H](Cc2ccccc2)NC(=O)CNC(=O)[C@@H]2CCCN2C1=O (HELM PEPTIDE1{G.G.Q.P.K.C.V.W.T.L.P.G.F.H.C.Y.S.T.G.G.[am]}$PEPTIDE1,PEPTIDE1,6:R3-15:R3$$$V2.0) | – | – | – | 5
43 | NCCCC[C@H](C(=O)NCCOCCOCCNC(=O)[C@H](CCCCN)N(Cc1ccc(OCc2ccccc2)cc1)Cc1ccc(OCc2ccccc2)cc1)N(Cc1ccc(OCc2ccccc2)cc1)Cc1ccc(OCc2ccccc2)cc1 | 51 | 2 | – | –
